The text below walks through data of publication PMC3534310, “Peptide-Modulated Activity Enhancement of Acidic Protease Cathepsin E at Neutral pH” (International Journal of Peptides, 2012).

A word on the Kd: it is the equilibrium constant for the complex coming apart.

Experiment [1] addresses T1, cathepsin E (Rattus norvegicus, UniProt P16228).
T1 construct: Cathepsin E was isolated from rat spleens as previously described; from tissue; host or cells: rat spleen
T1 sequence (P16228 59-398): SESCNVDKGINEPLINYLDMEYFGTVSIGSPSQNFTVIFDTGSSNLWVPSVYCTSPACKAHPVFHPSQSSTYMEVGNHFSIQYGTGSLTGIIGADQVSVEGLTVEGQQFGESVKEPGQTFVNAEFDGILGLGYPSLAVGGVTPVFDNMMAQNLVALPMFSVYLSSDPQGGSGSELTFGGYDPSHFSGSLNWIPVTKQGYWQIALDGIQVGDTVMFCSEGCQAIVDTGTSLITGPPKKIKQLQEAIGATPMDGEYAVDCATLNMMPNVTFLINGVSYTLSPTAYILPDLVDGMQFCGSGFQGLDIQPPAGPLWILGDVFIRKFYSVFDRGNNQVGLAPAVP
Nature of the experiment: Cathepsin E protease activity assay (fluorogenic substrate, neutral pH). It is filed as biochemical. To be noted: 20 nM cathepsin E + 20 nM peptide; for Activity (%), value in parentheses: Table 2, value in parentheses. The method, then:
(§1) Cathepsin E was isolated from rat spleens as previously described. The fluorogenic substrate for cathepsin E at neutral pH (pH 7.4) was the same as previously reported. The fluorogenic substrate (10 mM) was prepared by dissolving in 100% DMSO and diluting in reaction buffer immediately before use.
Activation of cathepsin E by the selected peptides was determined as previously described. The selected peptides were prepared by in vitro translation or chemical synthesis. A solution containing 20 nM cathepsin E was pre incubated with 20 nM of selected peptides in Selection buffer (50 mM Tris-HCl, 100 mM NaCl, pH 7.4) at 25°C for 10 min. Next, the fluorogenic substrate was added (5 μM) and the mixture was incubated at 37°C for 1 h for the enzyme reaction. The fluorescent reaction product was monitored at 440 nm (excitation at 340 nm) using Infinite 200 (TECAN, Japan). The percent of cathepsin E activation (A) was calculated by: (1) A = 100×(Sf−Bf)/(Cf−Bf) [% activation], where S f was the fluorescence intensity of the cathepsin E reaction in the presence of a selected peptide, C f was the fluorescence intensity of the control in the absence of a selected peptide, and B f was background fluorescence of the solution containing the fluorogenic substrate only.

The test system of experiment [2] is caspase-3/7 activity in HeLa cells. Nature of the experiment: Apo-ONE Homogeneous Caspase-3/7 assay in HeLa cells. As to conditions: for Caspase-3/7 activity: three independent experiments. The experiment is classed as cell-based. The method, then:
HeLa cells were used for an in vitro cell-based bioassay. Approximately 10,000 HeLa cells were seeded into the wells of a 96-well culture plate (Corning, USA) containing 100 uL of DMEM medium supplemented with 10% FBS and 2% penicillin-streptomycin and incubated overnight at 37°C under 5% CO2. […] After incubation, viable cells were determined with a Cell Counting Kit-F (Dojindo Molecular Technologies, Japan) according to the manufacturer's protocol. Viable cells were identified by their fluorescent emissions intensity using an Infinite 200 (TECAN, Japan) with excitation at 490 nm and emission at 515 nm. To detect apoptotic cells, cells were treated with Annexin V-Cy3 (BioVision, USA) following the manufacturer's protocol. Apoptotic cells were detected by their fluorescent emissions with excitation at 543 nm and emission at 570 nm. To detect caspase-3/7 activity induced by cathepsin E, an Apo-ONE Homogeneous Caspase-3/7 Assay kit (Promega, USA) was used according to the manufacturer's protocol. Activity was detected by fluorescent emissions with excitation at 485 nm and emission at 530 nm. The cathepsin E and selected peptide concentrations used for apoptosis and caspase assays were the same as those used for cell viability assays.

A further experiment concerns HeLa cells. Nature of the experiment: HeLa cell death assay (Cell Counting Kit-F viability, Annexin V-Cy3 apoptosis). It is filed as cell-based. The method, then: HeLa cells were used for an in vitro cell-based bioassay. Approximately 10,000 HeLa cells were seeded into the wells of a 96-well culture plate (Corning, USA) containing 100 uL of DMEM medium supplemented with 10% FBS and 2% penicillin-streptomycin and incubated overnight at 37°C under 5% CO2. The cells were treated with cathepsin E (77 nM) alone or together with two different concentrations (770 nM, 7.7 μM) of the selected peptide T11 in 100 μL of serum-free Opti-MEM at 37°C for 20 h. After incubation, viable cells were determined with a Cell Counting Kit-F (Dojindo Molecular Technologies, Japan) according to the manufacturer's protocol. Viable cells were identified by their fluorescent emissions intensity using an Infinite 200 (TECAN, Japan) with excitation at 490 nm and emission at 515 nm. To detect apoptotic cells, cells were treated with Annexin V-Cy3 (BioVision, USA) following the manufacturer's protocol. Apoptotic cells were detected by their fluorescent emissions with excitation at 543 nm and emission at 570 nm. To detect caspase-3/7 activity induced by cathepsin E, an Apo-ONE Homogeneous Caspase-3/7 Assay kit (Promega, USA) was used according to the manufacturer's protocol. Activity was detected by fluorescent emissions with excitation at 485 nm and emission at 530 nm. […]
On the technique in general: Tetrazolium assays rely on reduction of a dye to a coloured formazan, in cell work by metabolically active cells.

Experiment [3] deals with T1, cathepsin E. Nature of the experiment: Affinity determination by SPR (Biacore2000). The experiment is classed as binding. As to conditions: cathepsin E immobilized on CM5 chip, peptide 10-40 nM, running buffer pH 7.4, 1:1 Langmuir fit. As for the experimental part: as §1
The dissociation constant (K d) of each selected peptide with cathepsin E was determined by the SPR method using a Biacore2000 (GE Healthcare, UK). Cathepsin E was immobilized on a CM5 Biacore sensor chip (GE Healthcare, UK) by the general amine coupling method. A small quantity of acetate buffer (50 mM sodium acetate, 100 mM NaCl, pH 4.5) containing cathepsin E (150 μg/mL) was injected into the flow cell for the sample lane. The reference lane was prepared similarly but without cathepsin E. Different concentrations (10, 20, 30, and 40 nM) of the selected peptide candidates, T4 and T11 were injected into both lanes at a flow rate of 20 ul/min to measure the interaction between cathepsin E and each peptide candidate. For all experiments, a neutral pH buffer (50 mM Tris-HCl, 100 mM NaCl, pH 7.4) was used as the running buffer and a solution of 50 mM NaOH was used to remove the peptides. The resulting sensorgram curves were fit to a 1 : 1 Langmuir binding model, and the K d values were calculated using BIA evaluation software (GE Healthcare, UK).
For orientation: Surface plasmon resonance follows binding to a sensor surface in real time, without labels.

In the next experiment the target is T2, peptide T4.
T2 chain: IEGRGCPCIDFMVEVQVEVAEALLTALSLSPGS
Nature of the experiment: SPR.

The mark [4] stands for this setting: Table 1, cathepsin E activity alone = 100%, pH 7.4, pre-incubation 25°C 10 min, 5 μM substrate, 37°C 1 h, peptide by in vitro translation (italics) or chemical synthesis.
The mark [5] stands for this setting: Table 2, value outside parentheses, pH 7.4, 37°C 1 h, peptide by in vitro translation (italic) or chemical synthesis.
[6] abbreviates: pH 7.4, 37°C 1 h, peptide by in vitro translation (italic) or chemical synthesis.

Peptide text beside a SMILES is read from it.

In the case of IEGRVGCDFMYVG [Peptide S1], the “Activity (%)” value on cathepsin E [1] (setting [4]) was 130%.

As to SPIISHIVGCDPPSCG [Peptide S7], the “Activity (%)” value on cathepsin E [1] (setting [4]) amounted to 160%.

As for PGIKPPPCIIIIG [Peptide S10], the “Activity (%)” value at cathepsin E [1] (setting [4]) is recorded as 145%.

PGIKIIIIG [Peptide S4]: the “Activity (%)” value on cathepsin E [1] (setting [4]) is listed as 151%.

With “SYKDSCIGGRGSGGGPGGIPGRIGYIG [Peptide T7, peptide selected from the paired peptide (third) library]”, the “Activity (%)” value on cathepsin E [1] (setting [5]) is listed as 111%.

For the molecule GSPCIGII [Peptide S2], at cathepsin E [1] (setting [4]), the “Activity (%)” value stood at 133%.

For the molecule “SDDKSTTLVEVQVEVAEELWRHYHYLLHG [Peptide T6, peptide selected from the paired peptide (third) library]”, the “Activity (%)” value at cathepsin E [1] (setting [5]) was 118%.

In the case of IGCEERSFPNIIIIIG [Peptide S8], the “Activity (%)” value at cathepsin E [1] (setting [4]) was found to be 168%.

As for “IEGRLLSGGAGACSVRTVDDSFDCG [Peptide T11, paired peptide selected from the third library; chemically synthesized, more than 95% purity]”, the Caspase-3/7 activity in experiment [2] (77 nM cathepsin E + 7.7 μM peptide T11, 24 h) came out at 188%. For the same molecule, the Caspase-3/7 activation result in experiment [2] (T11 added without cathepsin E) is on record as “not observed”. Besides, the “Activity (%), value in parentheses” value at cathepsin E [1] (setting [6]) was 138%. Moreover, the “percentage of dying cells” value in the experiment on HeLa cells (77 nM cathepsin E with T11 (770 nM, 7.7 μM) versus without T11, 20 h (Figures 3a, 3b)) is reported as “significantly higher”. In the experiment with HeLa cells (peptide alone (without cathepsin E)), the effect on cells result is on record as “no effect”. Besides, on cathepsin E [3], the “dissociation constant (Kd) with cathepsin E” value is “too weak to be determined”.

Turning to SGIKVGCDPPSCG [Peptide S9], the “Activity (%)” value at cathepsin E [1] (setting [4]) is recorded as 140%.

On to `CC[C@H](C)[C@H](N)C(=O)N[C@@H](CCC(=O)O)C(=O)NCC(=O)N[C@@H](CCCNC(=N)N)C(=O)NCC(=O)N[C@@H](CS)C(=O)N1CCC[C@H]1C(=O)N[C@@H](CS)C(=O)N[C@H](C(=O)N[C@@H](CC(=O)O)C(=O)N[C@@H](Cc1ccccc1)C(=O)N[C@@H](CCSC)C(=O)N[C@H](C(=O)N[C@@H](CCC(=O)O)C(=O)N[C@H](C(=O)N[C@@H](CCC(N)=O)C(=O)N[C@H](C(=O)N[C@@H](CCC(=O)O)C(=O)N[C@H](C(=O)N[C@@H](C)C(=O)N[C@@H](CCC(=O)O)C(=O)N[C@@H](C)C(=O)N[C@@H](CC(C)C)C(=O)N[C@@H](CC(C)C)C(=O)N[C@H](C(=O)N[C@@H](C)C(=O)N[C@@H](CC(C)C)C(=O)N[C@@H](CO)C(=O)N[C@@H](CC(C)C)C(=O)N[C@@H](CO)C(=O)N1CCC[C@H]1C(=O)NCC(=O)N[C@@H](CO)C(=O)O)[C@@H](C)O)C(C)C)C(C)C)C(C)C)C(C)C)[C@@H](C)CC` [Peptide T4] (H-IEGRGCPCIDFMVEVQVEVAEALLTALSLSPGS-OH), for which the “Activity (%), value in parentheses” value at cathepsin E [1] (setting [6]) was 122%. The Kd at cathepsin E [3] (read-out: dissociation constant (Kd) with cathepsin E) stood at 2 nM.

B1: Cathepsin E (protein)
chain: T1 sequence (P16228 59-398)
B1: the Caspase-3/7 activity in experiment [2] (77 nM cathepsin E alone, 24 h) was 155%. In the experiment with peptide T4, this molecule yielded a dissociation constant Kd of 2 nM.
